According to patent publication US20240252456A1, “ORAL COMPOSITION, SKIN COSMETIC AND HAIR COSMETIC” (MARUZEN PHARMACEUTICALS CO., LTD., priority 2021, published 2024):

What was measured:
[1] = system: Normal human dermal fibroblasts (NB1RGB); assay: Type I collagen production promotive action test; type: cell-based; details: 3 days, A/B×100 vs no sample
Experimental: Normal human dermal fibroblasts (NB1RGB) were cultured using Dulbecco's modified Eagle's medium (DMEM) containing 10% FBS, and then the cells were collected by a trypsin treatment. The collected cells were diluted with DMEM containing 0.25% FBS to a cell density of 1.6×10^5 cells/mL, then seeded with 100 μL per well in a 96-well microplate, and cultured overnight.
After the culturing was completed, 100 μL of the test sample (Sample 1, see Table 6 below for final concentration) dissolved in DMEM containing 0.25% FBS was added to each well, and culturing was performed for 3 days. As a control, culturing was performed in the same manner using DMEM containing 0.25% FBS to which no sample was added. After culturing, the amount of type I collagen in the medium of each well was measured by ELISA method. From the measurement results, the type I collagen production promotion rate (%) was calculated using the following equation.
Type I collagen production promotion rate (%)=A/B×100
Terms in the equation represent the following respective ones. • A: Type I collagen amount with test sample addition • B: Type I collagen amount without sample addition

[2] = system: Normal human neonatal epidermal keratinocytes (NHEK); assay: Epidermal keratinocyte proliferation promotive action test (MTT); type: cell-based; details: 3 days, A/B×100 vs no sample
Experimental: Normal human neonatal epidermal keratinocytes (NHEK) were cultured using normal human epidermal keratinocyte growth medium (KGM), and then the cells were collected by a trypsin treatment. The collected cells were diluted with KGM to a cell density of 3.0×10^4 cells/mL, then seeded with 100 μL per well on a collagen-coated 96-well plate, and cultured overnight. After the culturing was completed, 100 μL of the test sample (Sample 1, see Table 12 below for the final concentration) dissolved in KGM was added to each well, and culturing was performed for 3 days. As a control, culturing was performed in the same manner using KGM to which no sample was added.
The epidermal keratinocyte proliferation promotive action was measured using the MTT assay method. After culturing for 3 days, the medium was removed, and 100 μL of MTT dissolved at a final concentration of 0.4 mg/mL in PBS(−) buffer solution was added to each well. […] After extraction, the absorbance at a wavelength of 570 nm was measured. At the same time, the absorbance at a wavelength of 650 nm was measured as turbidity, and the difference between the two was determined as the production amount of blue formazan. From the obtained results, the epidermal keratinocyte proliferation promotion rate (%) was calculated using the following equation. […]

SPT mRNA = assay: Serine palmitoyltransferase (SPT) mRNA expression promotive action test; type: cell-based, human; details: NHEK, 24 hours, corrected with GAPDH
Experimental: Normal human neonatal epidermal keratinocytes (NHEK) were precultured using normal human epidermal keratinocyte growth medium (KGM), and the cells were collected by a trypsin treatment. The collected cells were diluted with KGM to a cell density of 15×10^4 cells/mL, then seeded with 2 mL portions in a 6-well plate (30×10^4 cells/well), and cultured overnight under conditions of 37° C. and 5% CO2. After culturing, the medium was replaced with normal human epidermal keratinocyte basal medium (KBM, the above KGM without addition of growth additives (hEGF, BPE, insulin, antibacterial agents, hydrocortisone)), and culturing was further performed for 24 hours.
After culturing for 24 hours, the medium was removed, and 2 mL of the test sample (Sample 1, see Table 16 below for final concentration) dissolved in KBM was added to each well, and culturing was performed under conditions of 37° C. and 5% CO2 for 24 hours. As a control, culturing was performed in the same manner using KBM to which no sample was added. After culturing, the medium was removed, total RNA was extracted using ISOGEN II (available from NIPPON GENE CO., LTD.), each RNA amount was measured using a spectrophotometer, and the total RNA was prepared so as to be 150 ng/μL.
For SPT and GAPDH as an internal standard, the expression levels of mRNA were measured using the above total RNA as a template. […]

[3] = system: Rat basophil leukemia cells (RBL-2H3); assay: Hexosaminidase release suppressive action test; type: cell-based; details: 500 μmol/L; RBL-2H3, DNP-specific IgE / DNP-BSA
Experimental: Rat basophil leukemia cells (RBL-2H3) were cultured using spinner modified Eagle's minimum essential medium (S-MEM) containing 15% FBS, and then the cells were collected by a trypsin treatment. The collected cells were diluted with S-MEM containing 15% FBS to a cell density of […], DNP-specific IgE was added to a final concentration of 0.5 μg/mL, and the cells were seeded with 100 μL per well in a 96-well plate and cultured overnight.
After culturing, the medium was removed and the cells were washed twice with 100 μL of Shiraganian buffer solution. […]
After the reaction was completed, 250 μL of 0.1 mol/L Na2CO3/NaHCO3 was added to each well, the absorbance at wavelengths of 415 nm and 650 nm was measured, and the value obtained by subtracting the absorbance at 650 nm from the absorbance at 415 nm was adopted as the corrected value. From the obtained measurement results, the hexosaminidase release suppression rate (%) was calculated using the following equation.
Terms in the equation represent the following respective ones. • A: Absorbance at wavelength 415-650 nm without sample addition • B: Absorbance at wavelength 415-650 nm with test sample addition

O=C(O)CCc1ccc(O)c(O)c1 [Sample 1, 3,4-Dihydroxyhydrocinnamic acid]
Type I collagen production promotion rate ([1]; 15.6 μmol/L): 107.4% | Type I collagen production promotion rate ([1]; 62.5 μmol/L): 112.8% | Epidermal keratinocyte proliferation promotion rate ([2]; 25 μmol/L): 138.3% | Epidermal keratinocyte proliferation promotion rate ([2]; 100 μmol/L): 152.1% | SPT mRNA expression promotion rate (SPT mRNA; 25 μmol/L): 114.6% | SPT mRNA expression promotion rate (SPT mRNA; 100 μmol/L): 149.9%

O=C(O)CCc1ccc(O)cc1 [Sample 2, 3-(4-Hydroxyphenyl)propionic acid]
Hexosaminidase release suppression rate [3]: 19.3%
